In ChEMBL document CHEMBL1159314, “Eupha-7,9(11),24-trien-3beta-ol ("antiquol C") and other triterpenes from Euphorbia antiquorum latex and their inhibitory effects on Epstein-Barr virus activation” (J Nat Prod, 2002) one finds Activity and viability data, which are given here for seven compounds.

What all share (type): cell-based
The subject of data set [1] is Raji. The data set can be described thus: Inhibition of TPA-induced EBV-early antigen activation in human Raji cells at 10 molar ratio after 48 hrs relative to TPA. Further details: scale not given: the % may be the effect or the level left. Particulars: human gammaherpesvirus 4.
Data set [2] in a line: Cytotoxicity against human Raji cells assessed as cell viability at 1000 molar ratio after 48 hrs by trypan blue assay. Particulars: read-out: Activity.
Data set [3] concerns Raji. Kind of data set: Inhibition of TPA-induced EBV-early antigen activation in human Raji cells at 1000 molar ratio after 48 hrs relative to TPA. More on the design: scale not given: the % may be the effect or the level left. Conditions: human gammaherpesvirus 4.
In data set [4] the test system is Raji. Kind of data set: Inhibition of TPA-induced EBV-early antigen activation in human Raji cells at 100 molar ratio after 48 hrs relative to TPA. Further details: scale not given: the % may be the effect or the level left. Particulars: human gammaherpesvirus 4.
The test system of data set [5] is Raji. Kind of data set: Inhibition of TPA-induced EBV-early antigen activation in human Raji cells at 500 molar ratio after 48 hrs relative to TPA. More on the design: scale not given: the % may be the effect or the level left. Conditions: human gammaherpesvirus 4.

Consider `CC(C)=CCC[C@]1(C)CC[C@]2(C)C3=CC[C@H]4C(C)(C)[C@@H](O)CC[C@]4(C)[C@H]3CC[C@@]2(C)C1`, for which the Activity worked out at 97.2% with Raji [1], 2.2% in the data set on Raji [3], 79.4% in the data set on Raji [4] and 33.8% in the data set with Raji [5]. Moreover, the viability at 48 h, 1000 molar ratio in data set [2] is 70%.

As for `CC(C)=CCC/C(C)=C/CC/C(C)=C/CC/C=C(\C)CC[C@@H]1C(C)=CC[C@H](O)C1(C)C` [CAMELLIOL C], the Activity in the data set on Raji [1] is 100%; with Raji [3], 20.1%; in the data set on Raji [4] it was 86.3%; with Raji [5] it was 51.5%. The viability at 48 h, 1000 molar ratio in data set [2] is 70%.

Consider `CC(C)=CCC[C@@H](C)[C@@H]1CC[C@]2(C)[C@H]3CCC(=C(C)C)[C@@H](CCCO)[C@]3(C)CC[C@@]12C` [ISOHELIANOL], for which the Activity in the data set with Raji [1] amounted to 95.7%; in the data set on Raji [3], 0%; in the data set with Raji [4] it was 72.4%; in the data set with Raji [5] it was 25.8%. For the same compound, the viability at 48 h, 1000 molar ratio in data set [2] was 70%.

Regarding `CC(C)=CCC[C@@H](C)[C@@H]1CC[C@]2(C)C3=CC[C@H]4C(C)(C)[C@@H](O)CC[C@]4(C)C3=CC[C@@]12C` [ANTIQUOL C], the Activity in the data set on Raji [1] stood at 92.8%; in the data set with Raji [3], 0%; in the data set with Raji [4], 75%; in the data set on Raji [5], 28.2%. The viability at 48 h, 1000 molar ratio in data set [2] turned out to be 70%.

As for `CC1=C(/C=C/C(C)=C/C=C/C(C)=C/C=C/C=C(C)/C=C/C=C(C)/C=C/C2=C(C)CCCC2(C)C)C(C)(C)CCC1`, the Activity in the data set on Raji [1] is 100%; in the data set with Raji [3], 8.6%.

Consider `CC(C)=CCC[C@@H](C)[C@@H]1CC[C@]2(C)C3=C(CC[C@@]12C)[C@@]1(C)CC[C@H](O)C(C)(C)[C@@H]1CC3` [EUPHOL], for which the Activity in the data set on Raji [1] is 93.5%; in the data set on Raji [3] it was 0%; with Raji [4], 75.7%; in the data set on Raji [5], 29.8%. Moreover, in data set [2], the viability at 48 h, 1000 molar ratio is 70%.

For the compound `C=C(CC[C@H](C)[C@@H]1CC[C@]2(C)C3=C(CC[C@@]12C)[C@@]1(C)CC[C@H](O)C(C)(C)[C@@H]1CC3)C(C)C` [EUPHORBOL], the Activity with Raji [1] turned out to be 95.8%; with Raji [3] it was 0%; in the data set with Raji [4] it was 77.9%; in the data set with Raji [5], 32.6%. Also, the viability at 48 h, 1000 molar ratio in data set [2] is 70%.
